What all share (assay type): cell-based
In one assay the test system is SW480 colon cancer cells. The experiment in a line: Cell viability assay (CellTiter-Blue), SW480 cells. The following applies: Homo sapiens, 96 h, four days, CellTiter-Blue. The procedure:
Representative compounds were screened using the following assay procedure to assess the effect on cell viability as described below.
Each compound was dissolved in DMSO as a 10 mM stock and used to prepare compound source plates. Serial dilution (1:3, 8-point dose-response curves from […]) and compound transfer was performed using the ECHO 550 (Labcyte, Sunnyvale, Calif.) into 96-well clear bottom, black-walled plates (Corning-Costar).
Approximately 2×10^3 SW480 colon cancer cells were seeded into each well and allowed to incubate in the presence or absence of compound for four days at 37° C./5% CO2. Eight replicates of DMSO-treated cells served as controls and cells treated with compound were performed in duplicate.
After incubation, 20 μL of CellTiter-Blue (Promega) was added to each well allowed to incubate for approximately 3 hours. This reagent was a buffered solution which contains resazurin, metabolically active cells were able to reduce rezarurin (blue) into resorufin (pink) which was highly fluorescent. This measured fluorescence was used as a readout for cell viability.
After incubation, the plates were read at Ex 560 nm Em 590 nm (Cytation 3, BioTek). Dose-response curves were generated and EC50 concentration values were calculated using non-linear regression curve fit in the GraphPad Prism (San Diego, Calif.) or Dotmatics' Studies Software (Bishops Stortford, UK). For EC50 of >10 μM, the percent inhibition at 10 μM is provided.
On the technique in general: Alamar Blue is a resazurin reagent that responds to reducing activity.

In another assay the test system is IL-6. The experiment in a line: IL-6 inhibition in LPS-stimulated THP-1 cells (HTRF). Particulars: Homo sapiens, LPS 500 ng/mL, 22 hours, IL6 HTRF. The protocol:
Human monocyte cell line (THP-1 cells; Catalog # TIB-202, ATCC, Manassas, Va.) were cultured in Roswell Park Memorial Institute (RPMI) 1640 Medium (Catalog #21870-100, Buffalo, N.Y.) with 1% L-glutamine, 1% HEPES, 1% Sodium Pyruvate, 2% Sodium Bicarbonate supplemented with 100 units/mL penicillin, 50 μg/mL streptomycin, 2-mercaptoethanol (0.05 mM) [basal medium] and 10% fetal bovine serum (Catalog #16140089, Life Technologies, Carlsbad, Calif.) at 37° C. and 5% CO2.
THP-1 cells were cultured in basal media with 1% FBS for 24 hours before the start of the assay. Each compound was dissolved in DMSO as a 10 mM stock and used to prepare compound source plates. Serial dilution (1:3, 10-point dose-response curves starting from 10 μM) and compound transfer was performed using the ECHO 550 (Labcyte, Sunnyvale, Calif.) into 384-well white low volume assay plates (Greiner Bio-One) with appropriate DMSO backfill for a final DMSO concentration of 0.1%. THP-1 cells were plated at 5000 cells/well in the 384-well plates and incubated at 37° C. for 2 h. 500 ng/mL of LPS was added after 2 hours and cells were incubated for another 22 hours at 37° C. Plates were spun in a centrifuge for 1 minute at […] and a mixture of anti-IL6 XL665, and anti-IL6 Cryptate diluted in reconstitution buffer (Cisbio Inc.) was added to each well. Following incubation for 3 hrs at room temperature, Homogeneous Time-Resolved Fluorescence (HTRF) was measured using the Envision (Perkin Elmer) at 665 nm and […]. The ratio of fluorescence at 665 nm to 620 nm was used as a readout for IL6 quantification. All samples were processed in duplicate. Readings were normalized to DMSO treated cells and normalized activities were utilized for EC50 calculations using the dose-response log (inhibitor) vs. response-variable slope (four parameters) nonlinear regression feature available in GraphPad Prism 5.0 (or Dotmatics). For EC50 of >10 μM, the percent inhibition at […] is provided.
A general note: In TR-FRET formats the signal depends on donor and acceptor labels being close together.

In assay [1] the test system is Wnt activity (Sp5-Luc reporter, TCF/LEF binding sites) in SW480 colon carcinoma cells. Description: Wnt activity screening assay, Sp5-Luc reporter gene in SW480 cells. Particulars: Homo sapiens, overnight incubation. The text has this: The screening assay for Wnt activity is described as follows. Reporter cell lines can be generated by stably transducing cancer cell lines (e.g., colon cancer) or primary cells (e.g., IEC-6 intestinal cells) with a lentiviral construct that includes a Wnt-responsive promoter driving expression of the firefly luciferase gene.
SW480 colon carcinoma cells were transduced with a lentiviral vector expressing luciferase with a human Sp5 promoter consisting of a sequence of eight TCF/LEF binding sites. SW480 cells stably expressing the Sp5-Luc reporter gene and a hygromycin resistance gene were selected by treatment with 150 μg/mL of hygromycin for 7 days. These stably transduced SW480 cells were expanded in cell culture and used for all further screening activities. Each compound was dissolved in DMSO as a 10 mM stock and used to prepare compound source plates. Serial dilution (1:3, 10-point dose-response curves starting from 10 μM) and compound transfer was performed using the ECHO 550 (Labcyte, Sunnyvale, Calif.) into 384-well white solid bottom assay plates (Greiner Bio-One) with appropriate DMSO backfill for a final DMSO concentration of 0.1%. For Sp5-Luc reporter gene assays, the cells were plated at 4,000 cells/well in 384-well plates with medium containing 1% fetal bovine serum and incubated overnight at 37° C. and 5% CO2. Following incubation, 20 μl of BrightGlo luminescence reagent (Promega) was added to each well of the 384-well assay plates. The plates were placed on an orbital shaker for 2 min and then luminescence was quantified using the Envision (Perkin Elmer) plate reader. Readings were normalized to DMSO only treated cells, and normalized activities were utilized for EC50 calculations using the dose-response log (inhibitor) vs. response-variable slope (four parameters) nonlinear regression feature available in GraphPad Prism 5.0 (or Dotmatics). For EC50 of >10 μM, the percent inhibition at 10 μM is provided.
Background: In a reporter assay the amount or activity of a reporter protein is the signal.

In assay [2] the test system is primary human fibroblasts derived from IPF patients (LL29 cells) treated with TGF-β1. The experiment in a line: Inhibition of fibrotic process, αSMA staining in TGF-β1 treated LL29 fibroblasts. Particulars: Fibroblast; for EC50: 96 h, TGF-β1 20 ng/mL, 4 days, % cells positive for αSMA. The text has this: Representative compounds were screened using primary human fibroblasts (derived from IPF patients) treated with TGF-β1 to determine their ability to inhibit the fibrotic process.
Primary human fibroblasts derived from IPF patients (LL29 cells) [^1Xiaoqiu Liu, et. al., “Fibrotic Lung Fibroblasts Show Blunted Inhibition by cAMP Due to Deficient cAMP Response Element-Binding Protein Phosphorylation”, Journal of Pharmacology and Experimental Therapeutics (2005), 315(2), 678-687; ^2Watts, K. L., et. al., “RhoA signaling modulates cyclin D1 expression in human lung fibroblasts; implications for idiopathic pulmonary fibrosis”, Respiratory Research (2006), 7(1), 88] were obtained from American Type Culture Collection (ATCC) and expanded in F12 medium supplemented with 15% Fetal Bovine Serum and Penicillin/Streptomycin.
Each compound was dissolved in DMSO as a 10 mM stock and used to prepare compound source plates. Serial dilution (1:2, 11-point dose-response curves from […] to […]) and compound transfer was performed using the ECHO 550 (Labcyte, Sunnyvale, Calif.) into 384-well clear bottom assay plates (Greiner Bio-One) with appropriate DMSO backfill for a final DMSO concentration of 0.1%. LL29 cells are plated at 1,500 cells/well in 80 μL/well F12 medium supplemented with 1% Fetal Bovine Serum. One hour after addition of the cells, TGF-β1 (Peprotech; 20 ng/mL) was added to the plates to induce fibrosis (ref. 1 and 2 above). Wells treated with TGF-β1 and containing DMSO were used as controls. Cells were incubated at 37° C. and 5% CO2 for 4 days. Following incubation for 4 days, SYTOX green nucleic acid stain (Life Technologies [Thermo Fisher Scientific]) was added to the wells at a final concentration of 1 μM and incubated at room temperature for 30 min. Cells were then fixed using 4% formaldehyde (Electron Microscopy Sciences), washed 3 times with PBS followed by blocking and permeabilization using 3% Bovine Serum Albumin (BSA; Sigma) and 0.3% Triton X-100 (Sigma) in PBS. Cells were then stained with antibody specific to α-smooth muscle actin (aSMA; Abcam) (ref. 1 and 2 above) in 3% Bovine Serum Albumin (BSA; Sigma) and 0.3% Triton X-100 (Sigma) in PBS, and incubated overnight at 4° C. Cells were then washed 3 times with PBS, followed by incubation with Alexa Flor-647 conjugated secondary antibody (Life Technologies [Thermo Fisher Scientific]) and DAPI at room temperature for 1 hour. Cells were then washed 3 times with PBS and plates were sealed for imaging. aSMA staining was imaged by excitation at 630 nm and emission at 665 nm and quantified using the Compartmental Analysis program on the CellInsight CX5 (Thermo Scientific). Dead or apoptotic cells were excluded from analysis based on positive SYTOX green staining. % of total cells positive for aSMA were counted in each well and normalized to the average of 11 wells treated with TGF-β1 on the same plate using Dotmatics' Studies Software. The normalized averages (fold change over untreated) of 3 replicate wells for each compound concentration were used to create dose-responses curves and EC50 values were calculated using non-linear regression curve fit in the Dotmatics' Studies Software. For EC50 of >10 μM, the percent inhibition at 10 μM is provided.

In patent US10519169B2, “3-(1H-pyrrolo[2,3-C]pyridin-2-yl)-1 H-pyrazolo[4,3-B]pyridines and therapeutic uses thereof” (Samumed, LLC, priority 2015, dated 2019) one finds EC50 and inhibition data, which are given here for seven compounds.

Where only a bound is given, the exact number is not on record here.

`CS(=O)(=O)NCc1cc(F)cc(-c2cncc3[nH]c(-c4n[nH]c5ccc(-c6cncc(CN7CCC(F)(F)C7)c6)nc45)cc23)c1` [Compound 502, N-(3-(2-(5-(5-((3,3-Difluoropyrrolidin-1-yl)methyl)pyridin-3-yl)-1H-pyrazolo[4,3-b]pyridin-3-yl)-1H-pyrrolo[2,3-c]pyridin-4-yl)-5-fluorobenzyl)methanesulfonamide]: the EC50 was 3090 nM with SW480 colon cancer cells, 1760 nM with IL-6, 2110 nM in assay [1] and > 10000 nM in assay [2]. Also, in assay [2] (given for EC50 >10 μM, TGF-β1, αSMA, 10 μM, read-out: percent inhibition at 10 μM), the inhibition at 10 µM was found to be 25.4%.
Turning to `O=C(Nc1cncc(-c2ccc3[nH]nc(-c4cc5c(-c6ccccc6F)cncc5[nH]4)c3n2)c1)C1CC1` [Compound 76, N-(5-(3-(4-(2-Fluorophenyl)-1H-pyrrolo[2,3-c]pyridin-2-yl)-1H-pyrazolo [4,3-b]pyridin-5-yl)pyridin-3-yl)cyclopropanecarboxamide], the EC50 amounted to 897 nM in the assay with SW480 colon cancer cells, 157 nM in the assay on IL-6, 1420 nM in assay [1] and 2040 nM in assay [2].
For the compound `CN(C)CCOc1cncc(-c2ccc3[nH]nc(-c4cc5ccncc5[nH]4)c3n2)c1` [Compound 659, 2-((5-(3-(1H-Pyrrolo[2,3-c]pyridin-2-yl)-1H-pyrazolo[4,3-b]pyridin-5-yl)pyridin-3-yl)oxy)-N,N-dimethylethan-1-amine], the EC50 with SW480 colon cancer cells amounted to 1480 nM; in the assay with IL-6, 1490 nM; in assay [1], 3350 nM; in assay [2], 4130 nM.
The matching figures for `Fc1ccccc1-c1cncc2[nH]c(-c3n[nH]c4ccc(-c5cncc(CNCc6ccccc6)c5)nc34)cc12` [Compound 80, N-Benzyl-1-(5-(3-(4-(2-fluorophenyl)-1H-pyrrolo[2,3-c]pyridin-2-yl)-1H-pyrazolo[4,3-b]pyridin-5-yl)pyridin-3-yl)methanamine]: 6720 nM, 5790 nM, 3980 nM and 4600 nM.
The corresponding values for `c1ncc(-c2ccc3[nH]nc(-c4cc5c(N6CCCCC6)cncc5[nH]4)c3n2)cc1OC1CCCCC1` [Compound 607, 5-(5-(Cyclohexyloxy)pyridin-3-yl)-3-(4-(piperidin-1-yl)-1H-pyrrolo[2,3-c]pyridin-2-yl)-1H-pyrazolo[4,3-b]pyridine] are 498 nM, 2360 nM, 3350 nM and 199 nM.
As for `CCNCc1cncc(-c2ccc3[nH]nc(-c4cc5ccncc5[nH]4)c3n2)c1` [Compound 258, N-((5-(3-(1H-Pyrrolo[2,3-c]pyridin-2-yl)-1H-pyrazolo[4,3-b]pyridin-5-yl)pyridin-3-yl)methyl)ethanamine], the EC50 with SW480 colon cancer cells was found to be 3580 nM; with IL-6, 873 nM; in assay [1], 8450 nM; in assay [2], 6630 nM.
For `Cc1ccncc1-c1ccc2[nH]nc(-c3cc4c(-c5cccs5)cncc4[nH]3)c2n1` [Compound 341, 5-(4-Methylpyridin-3-yl)-3-(4-(thiophen-2-yl)-1H-pyrrolo[2,3-c]pyridin-2-yl)-1H-pyrazolo[4,3-b]pyridine], the EC50 in the assay on SW480 colon cancer cells turned out to be 4250 nM; in the assay on IL-6, 118 nM; in assay [1], 4070 nM; in assay [2], 521 nM.

A word on the EC50: it is the concentration giving half of the maximal effect. A low value points to higher potency in that assay. A word on the inhibition: it is the drop in the measured response relative to a control, in per cent.
